Legend:
Hepatitis C virus [1] = test: Antiviral activity against Hepatitis C virus genotype 1b expressing NS3/4A protease A156V mutant infected in HuH7 cells; type: functional, organism-based, Hepacivirus hominis; details: Huh-7
[2] = Inhibition of Hepatitis C virus genotype 1a NS3/4A protease using Ac-DE-Dap(QXL520)-EE-Abu-psi-COO]-AS-C(5-FAMsp)-NH2 as substrate by FRET analysis; set-up: species or system Hepatitis C virus subtype 1a
[3] = Clearance in rat; type: ADME, organism-based; details: in vivo
[4] = Oral bioavailability in rat; type: ADME, organism-based; details: in vivo
[5] = Apparent permeability of the compound at pH 7.05 by PAMPA assay; type: ADME
Hepatitis C virus [6] = test: Antiviral activity against Hepatitis C virus genotype 1b expressing wild type NS3/4A protease infected in HuH7 cells; type: functional, organism-based, Hepacivirus hominis; details: Huh-7
Hepatitis C virus [7] = test: Antiviral activity against Hepatitis C virus genotype 1b expressing NS3/4A protease […] mutant infected in HuH7 cells; type: functional, organism-based, Hepacivirus hominis; details: Huh-7
Hepatitis C virus [8] = test: Antiviral activity against Hepatitis C virus genotype 1b expressing NS3/4A protease A156S mutant infected in HuH7 cells; type: functional, organism-based, Hepacivirus hominis; details: Huh-7
Hepatitis C virus [9] = test: Antiviral activity against Hepatitis C virus genotype 1b infected in HuH7 cells; type: functional, organism-based, Hepacivirus hominis; details: Huh-7
Hepatitis C virus [10] = test: Antiviral activity against Hepatitis C virus genotype 1b expressing NS3/4A protease A156T mutant infected in HuH7 cells; type: functional, organism-based, Hepacivirus hominis; details: Huh-7
Hepatitis C virus [11] = test: Antiviral activity against Hepatitis C virus genotype 1a infected in HuH7 cells; type: functional, organism-based, Hepacivirus hominis; details: subtype 1a, Huh-7
Hepatitis C virus [12] = test: Antiviral activity against Hepatitis C virus genotype 1b expressing NS3/4A protease D168A mutant infected in HuH7 cells; details: Hepacivirus hominis, Huh-7
Hepatitis C virus [13] = test: Antiviral activity against Hepatitis C virus genotype 1b expressing NS3/4A protease R155K mutant infected in HuH7 cells; type: functional, organism-based, Hepacivirus hominis; details: Huh-7

Row | SMILES | EC50 (Hepatitis C virus [1]) [nM] | IC50 [2] [nM] | clearance [3] [mL/min/kg] | bioavailability [4] [%] | Papp [5] [×10⁻⁶ cm/s] | EC50 (Hepatitis C virus [6]) [nM] | EC50 (Hepatitis C virus [7]) [nM] | EC50 (Hepatitis C virus [8]) [nM] | EC50 (Hepatitis C virus [9]) [nM] | EC50 (Hepatitis C virus [10]) [nM] | EC50 (Hepatitis C virus [11]) [nM] | EC50 (Hepatitis C virus [12]) [nM] | EC50 (Hepatitis C virus [13]) [nM]
1 | COc1ccc2c(O[C@@H]3C[C@H]4C(=O)N[C@]5(C(=O)NS(=O)(=O)C6CC6)C[C@H]5/C=C\CCCCCC(OC(=O)n5ccnc5)C(=O)N4C3)cc(-c3nc(C(C)C)cs3)nc2c1C (stereo not given in full) | 3.9 | 3.2 | 53.7 | 12 | 1.2 | 0.5 | 151 | 0.1 | 0.5 | 2.8 | 0.8 | 70 | 47.9
2 | CCOC1CCCCC/C=C\[C@@H]2C[C@@]2(C(=O)NS(=O)(=O)C2CC2)NC(=O)[C@@H]2C[C@@H](Oc3cc(-c4nc(C(C)C)cs4)nc4c(C)c(OC)ccc34)CN2C1=O (stereo not given in full) | 434 | 107 |  |  |  | 63.1 | 694 | 29.4 | 79.4 | 397 | 251 | 514 | 3980
3 | COc1ccc2c(O[C@@H]3C[C@H]4C(=O)N[C@]5(C(=O)NS(=O)(=O)C6CC6)C[C@H]5/C=C\CCCCCC(OC(=O)N5CCCCC5)C(=O)N4C3)cc(-c3nc(C(C)C)cs3)nc2c1C (stereo not given in full) | 658 | 56.2 |  |  |  | 7.1 | 3980 | 9.7 | 3.2 | 90.2 | 10 | 2150 | 1480
4 | COc1ccc2c(O[C@@H]3C[C@H]4C(=O)N[C@]5(C(=O)NS(=O)(=O)C6CC6)C[C@H]5/C=C\CCCCCC(OC(=O)NC(C)(C)C)C(=O)N4C3)cc(-c3nc(C(C)C)cs3)nc2c1C (stereo not given in full) | 322 | 31 |  |  |  | 1.2 | 1070 | 2.5 | 0.8 | 84.6 | 5 | 462 | 324
5 | COc1ccc2c(O[C@@H]3C[C@H]4C(=O)N[C@]5(C(=O)NS(=O)(=O)C6CC6)C[C@H]5/C=C\CCCCCC(O)C(=O)N4C3)cc(-c3nc(C(C)C)cs3)nc2c1C (stereo not given in full) | 3.2 | 6.8 |  |  |  | 1.3 | 45.7 | 0.1 | 0.8 | 2.6 | 1 | 62.8 | 60.3
6 | COc1ccc2c(O[C@@H]3C[C@H]4C(=O)N[C@]5(C(=O)NS(=O)(=O)C6CC6)C[C@H]5/C=C\CCCCCC(OC(=O)OC(C)(C)C)C(=O)N4C3)cc(-c3nc(C(C)C)cs3)nc2c1C (stereo not given in full) |  | 195 |  |  |  | 63.1 |  |  | 39.8 |  | 50.1 |  | 
7 | CC(C)(C)OC(=O)N[C@H]1CCCCC/C=C\[C@@H]2C[C@@]2(C(=O)NS(=O)(=O)C2CC2)NC(=O)[C@@H]2C[C@@H](OC(=O)N3Cc4cccc(F)c4C3)CN2C1=O [DANOPREVIR] | 8.3 | 0.4 |  |  |  | 0.1 | 24.5 | 1.6 |  | 6.8 |  | 48.5 | 80.8

Reference: ChEMBL document CHEMBL2016556, “Discovery of novel P3-oxo inhibitor of hepatitis C virus NS3/4A serine protease” (Bioorg Med Chem Lett, 2012)
